The source of these data is PubChem BioAssay AID1159605 (The Scripps Research Institute Molecular Screening Center, 2016).

Structures are written as SMILES. Activity calls are given as the source filed them.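 The calls were made as follows: active = IC50 of 10 µM or lower; inactive = IC50 above 10 µM.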 A value given as a limit tells only on which side of the number the result lay.

Sequence of Mitogen-activated protein kinase kinase kinase 5 (Homo sapiens) (Q99683 whole entry, looked up): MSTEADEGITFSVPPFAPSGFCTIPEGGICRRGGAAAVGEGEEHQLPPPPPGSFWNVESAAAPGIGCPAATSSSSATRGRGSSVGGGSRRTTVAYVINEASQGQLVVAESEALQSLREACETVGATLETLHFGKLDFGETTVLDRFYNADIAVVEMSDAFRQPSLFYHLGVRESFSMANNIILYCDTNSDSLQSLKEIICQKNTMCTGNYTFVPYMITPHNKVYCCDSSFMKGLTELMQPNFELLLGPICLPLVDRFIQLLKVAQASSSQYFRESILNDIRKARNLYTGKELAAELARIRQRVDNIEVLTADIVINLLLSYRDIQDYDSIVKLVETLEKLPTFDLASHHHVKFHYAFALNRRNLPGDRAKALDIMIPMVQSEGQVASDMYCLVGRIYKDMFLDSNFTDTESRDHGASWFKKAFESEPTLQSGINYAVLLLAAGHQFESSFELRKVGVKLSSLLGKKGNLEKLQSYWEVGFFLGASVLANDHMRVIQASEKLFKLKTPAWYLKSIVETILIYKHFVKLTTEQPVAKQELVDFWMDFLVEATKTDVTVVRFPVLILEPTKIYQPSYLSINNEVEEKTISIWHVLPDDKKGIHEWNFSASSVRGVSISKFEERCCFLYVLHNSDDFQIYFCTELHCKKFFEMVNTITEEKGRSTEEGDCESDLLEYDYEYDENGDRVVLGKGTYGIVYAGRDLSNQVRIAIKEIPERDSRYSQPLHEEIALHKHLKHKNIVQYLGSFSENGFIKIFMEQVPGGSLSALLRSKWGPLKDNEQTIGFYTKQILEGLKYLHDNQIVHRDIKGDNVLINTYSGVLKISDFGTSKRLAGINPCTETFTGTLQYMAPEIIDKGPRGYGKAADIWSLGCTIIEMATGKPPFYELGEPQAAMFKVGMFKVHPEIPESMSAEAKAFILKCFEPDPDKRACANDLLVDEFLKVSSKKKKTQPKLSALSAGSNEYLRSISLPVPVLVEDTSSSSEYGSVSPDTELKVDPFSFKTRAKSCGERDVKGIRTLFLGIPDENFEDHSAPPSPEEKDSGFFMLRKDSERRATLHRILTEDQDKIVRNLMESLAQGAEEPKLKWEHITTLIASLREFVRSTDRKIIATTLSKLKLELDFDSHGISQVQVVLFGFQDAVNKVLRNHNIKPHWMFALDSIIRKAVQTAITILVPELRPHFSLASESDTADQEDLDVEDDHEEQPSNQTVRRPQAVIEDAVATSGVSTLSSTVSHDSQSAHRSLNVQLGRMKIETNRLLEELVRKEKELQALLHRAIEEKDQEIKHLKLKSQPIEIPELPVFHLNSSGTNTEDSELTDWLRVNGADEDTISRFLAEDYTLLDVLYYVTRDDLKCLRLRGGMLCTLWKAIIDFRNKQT

The assay concerns the target Mitogen-activated protein kinase kinase kinase 5 (Homo sapiens) (UniProt Q99683). The assay is described as follows: ASK1 kinase inhibitor potency, dose response, biochemical, AlphaScreen, MKK6 phosphorylation (AID 1159605).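 Also: ASK1 phosphorylation of MKK6 substrate detected with anti-phospho-MKK6 antibody beads; inhibitors lower the luminescent signal by blocking MKK6 phosphorylation.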 As to conditions: AlphaScreen luminescence.
Take `Cc1cc(NC2CCN(Cc3ccccc3)CC2)nc(Nc2cccc(N(C)C)c2)n1`: the IC50 was > 21.2 µM (inactive). Take `Cc1cc(Nc2ccc3c(c2)OCO3)nc(N2CCN(Cc3ccc4c(c3)OCO4)CC2)n1`: the IC50 result was “inactive”. For `CN(C)c1cccc(Nc2nc(Nc3ccc(N4CCOCC4)cc3)c3[nH]cnc3n2)c1` the value was “inactive”. For the compound `c1cn(-c2ccc(Nc3nc4ncnc(Nc5ccc6c(c5)OCO6)c4[nH]3)cc2)cn1`, the IC50 was > 21.9 µM (inactive). As to `Nc1cccc(-c2nc3ncnc(Nc4ccc(N5CCOCC5)cc4)c3[nH]2)c1`, the IC50 was > 18.2 µM (inactive).

For the compound `CC(C)n1cnc2c(Nc3ccc4c(c3)OCO4)nc(Nc3ccc(N4CCOCC4)cc3)nc21`, the IC50 is > 20 µM (inactive).

Consider `Nc1cc(C2=C3C=CN=C3C(=O)NCC2)c(O)[nH]1`, for which the IC50 was > 19.2 µM (inactive). Then `FC(F)(F)c1cccc(CNc2nc(N3CCN(c4ccccn4)CC3)nc3c2ncn3-c2ccsc2)c1`, with > 20 µM (inactive); and `Cc1cccc(Nc2ccc3c(cnn3-c3cccc(C(=O)NCCN4CCN(CC5CC5)CC4)c3)c2)c1Cl`, with > 19.2 µM (inactive); and `Cc1ccc(-c2ncn(-c3ccc(Nc4nccc(-c5cncc(N6CCOCC6)c5)n4)cc3)n2)cn1`, with > 19.2 µM (inactive).

For the compound `COc1cc2nc(Nc3cccc(N(C)C)c3)nc(NC3CC3)c2cc1OC`, the IC50 result is “inactive”. Then `COc1cc(Nc2nc(-c3c(C)noc3C)nc3c2ncn3Cc2ccc(C(F)(F)F)cc2)cc(OC)c1OC`, with > 27.5 µM (inactive); and `COc1cc2nc(Nc3cc(OC)c(OC)c(OC)c3)nc(Nc3ccc(N4CCOCC4)cc3)c2cc1OC`, with > 20.3 µM (inactive). As to `COc1cc2nc(Nc3ccc4ncccc4c3)nc(Nc3ccc(NC(C)=O)cc3)c2cc1OC`, the IC50 is > 20 µM (inactive). As to `NC(=O)c1ccc(-c2nc(NCc3cccc(C(F)(F)F)c3)c3ncn(-c4ccccc4)c3n2)cc1`, the IC50 was > 18 µM (inactive). Take `Cc1cnc(Nc2ccc(N3CCOCC3)cc2)nc1NCc1cccc(C(F)(F)F)c1`: the IC50 is 8.86 µM. For `COc1cc2nc(Nc3cccc(N(C)C)c3)nc(Nc3ccc(N4CCOCC4)cc3)c2cc1OC`, the IC50 was > 19.9 µM (inactive). For `CC(C)n1cnc2c(NC3CCN(Cc4ccccc4)CC3)nc(Nc3cccc(N(C)C)c3)nc21` the value was > 21.5 µM (inactive); for `CN(C)c1cccc(Nc2nccc(NCCOc3ccccc3)n2)c1`, “inactive”.

With `COc1ccc(-c2ncn(-c3ccc(Nc4nccc(-c5cc(C#N)cc(N6CCNCC6)c5)n4)cc3)n2)cn1`, the IC50 was > 19.2 µM (inactive). In the case of `CCCNc1nc(Nc2ccc(N3CCOCC3)cc2)nc2c1ncn2C1CCCCC1`, the IC50 result is “inactive”.

For `FC(F)(F)c1ccc(Cn2cnc3c(NCc4ccccc4)nc(Nc4ccccc4)nc32)cc1`, the IC50 was > 20.1 µM (inactive). As to `Cc1c[nH]c2ncnc(-c3ccc(NC(=O)Nc4ccccc4)cc3)c12`, the IC50 is > 19.2 µM (inactive). Take `COc1ccc(CCNc2nc(Nc3ccc(N4CCOCC4)cc3)nc3cc(OC)c(OC)cc23)cc1`: the IC50 entry is “inactive”. Regarding `O=c1[nH]cccc1-c1ccc(Nc2nccc(-c3ccc4nc(C5CC5)[nH]c(=O)c4c3)n2)cc1`, the IC50 is > 19.2 µM (inactive). For `CN(C)c1cccc(Nc2nc(NCCc3ccc(O)cc3)c3ncn(-c4ccccc4)c3n2)c1`, the IC50 was > 20 µM (inactive). For the compound `Cc1[nH]ncc1-c1ccc2nc(NC(=O)C3COc4ccc(F)cc4C3)sc2c1` (stereo not given), the IC50 is > 19.2 µM (inactive). Then `COc1cc2nc(Nc3nccc4ccccc34)nc(Nc3ccc(NC(C)=O)cc3)c2cc1OC`, with “inactive”; and `c1ccc2c(c1)CCN(c1nccc(Nc3ccc(N4CCOCC4)cc3)n1)C2`, with “inactive”. As to `FC(F)(F)c1ccc(Cn2cnc3c(Nc4ccc(N5CCOCC5)cc4)nc(NC4CCN(Cc5ccccc5)CC4)nc32)cc1`, the IC50 result was “inactive”. Consider `CC(C)n1c(Nc2cccc(N(C)C)c2)nc2c(NC3CCN(Cc4ccccc4)CC3)ncnc21`, for which the IC50 was > 18.8 µM (inactive). With `COc1cc2nc(Nc3ccc(N4CCOCC4)cc3)nc(Nc3ccccc3)c2cc1OC`, the IC50 was > 20.1 µM (inactive). With `CN(C)c1cccc(Nc2nccc(NCc3cccc(C(F)(F)F)c3)n2)c1`, the IC50 was > 16.5 µM (inactive). For `CC(C)n1cnc2c(NC3CC3)nc(N3CCN(c4ccccn4)CC3)nc21` the value was “inactive”; for `COc1cc2nc(Nc3ccc(N4CCOCC4)cc3)nc(Nc3ccc4c(c3)OCO4)c2cc1OC`, “inactive”; for `Cc1ccc(-c2ncn(-c3ccc(Nc4ncc(Cl)c(-c5ccnn5C)n4)cc3)n2)cn1`, > 19.2 µM (inactive). For `COc1cc2nc(Nc3cccc(N(C)C)c3)nc(Nc3ccc(NC(C)=O)cc3)c2cc1OC` the value was 7.74 µM; for `c1ccc(CN2CCC(Nc3nc(Nc4ccc(N5CCOCC5)cc4)nc4nc[nH]c34)CC2)cc1`, > 19.7 µM (inactive); for `c1ccc2c(-c3nccc(Nc4ccc(N5CCOCC5)cc4)n3)csc2c1`, > 21.8 µM (inactive). On to `COc1ccc(CCNc2nc(Nc3ccc(N4CCOCC4)cc3)nc3c2ncn3-c2ccccc2)cc1`, for which the IC50 was 9.28 µM.

For `Fc1cc(-c2ccnc(Nc3ccc(N4CCOCC4)cc3)n2)cc(N2CCN(C3CC3)CC2)c1`, the IC50 was > 19.2 µM (inactive). On to `COc1cc2nc(Nc3nc4ccccc4n3C)nc(Nc3ccc(NC(C)=O)cc3)c2cc1OC`, for which the IC50 was 4.33 µM. For `Cc1cnc(-c2csc3ccccc23)nc1Nc1ccc(N2CCOCC2)cc1`, the IC50 was > 20.1 µM (inactive). For the compound `COc1ccc(CCNC(=O)c2ccnc(Nc3cccc(N(C)C)c3)c2)cc1`, the IC50 is > 20 µM (inactive). Turning to `Cc1cc(Nc2ccc(N3CCOCC3)cc2)nc(N2CCc3ccccc3C2)n1`, the IC50 entry is “inactive”.

With `FC(F)(F)c1ccc(Cn2cnc3c(Nc4ccc5c(c4)OCO5)nc(Nc4ccccc4)nc32)cc1`, the IC50 is > 22 µM (inactive). Regarding `CN(C)c1cccc(Nc2ccc(-n3cc(CC(=O)Nc4ccc5c(c4)OCO5)c4ccccc43)nn2)c1`, the IC50 is > 19 µM (inactive). Then `Cc1ccccc1-c1cscc1Nc1cnn(-c2cccc(C(=O)Nc3ccc(N4CCOCC4)cc3)c2)c1`, with > 19.2 µM (inactive).

In the case of `COc1cc2nc(NC3CCN(Cc4ccccc4)CC3)nc(Nc3ccc(N4CCOCC4)cc3)c2cc1OC`, the IC50 result is “inactive”. With `COc1cc2nc(Nc3ccc(N4CCOCC4)cc3)nc(NC3CC3)c2cc1OC`, the IC50 entry is “inactive”.
